Results as given in US9018224B2, “Substituted cyclopropyl compounds useful as GPR119 agonists” (Merck Sharp & Dohme Corp., priority 2011, dated 2015).

target: T1, human GPR119 (Homo sapiens, UniProt Q8TDV5); assay: Measurement of GPR119 signaling by cAMP (LANCE cAMP kit or HTRF) in HEK293 cells transfected with human GPR119; assay type: cell-based; settings: agonist cAMP response in HEK293 cells stably transfected with human GPR119; patent does not say which of the two cAMP formats (LANCE or HTRF)
T1 sequence (Q8TDV5 1-308 limits assumed): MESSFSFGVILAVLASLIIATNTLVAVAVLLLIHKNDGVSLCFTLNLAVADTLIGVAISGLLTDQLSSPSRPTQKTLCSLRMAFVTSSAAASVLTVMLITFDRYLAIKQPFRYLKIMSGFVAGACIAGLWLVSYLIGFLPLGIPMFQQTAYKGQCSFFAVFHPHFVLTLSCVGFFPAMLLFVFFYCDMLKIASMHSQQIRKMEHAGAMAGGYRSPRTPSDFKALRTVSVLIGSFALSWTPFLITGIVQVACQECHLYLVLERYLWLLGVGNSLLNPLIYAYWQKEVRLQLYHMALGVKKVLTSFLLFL
Method: Measurement of GPR119 Signaling Using LANCE 384-Well cAMP Kit
The adenylate cyclase assay was constructed following the LANCE™ cAMP Kit (Perkin Elmer, AD0264) instructions. […] The reaction was stopped by incubating with the supplied detection buffer containing the europium chelate of the Eu-SA/Biotin-cAMP tracer for 3 hours. The assay was performed in duplicate in a 384 well plate for duplicate plates. […] Basal activity was determined using a DMSO control and maximum response was defined as cAMP stimulation produced by an internal agonist control. Standard cAMP concentrations were assayed concurrently for conversion of fluorescence signal to cAMP level. The data was analyzed using 4-parameter curve fit in Microsoft Excel
Measurement of GPR119 Signaling Using a Cyclic AMP (cAMP) Homogenous Time Resolved Fluorescence (HTRF) Assay
Chinese hamster ovary (CHO) cell lines stably transfected with the permissive guanine nucleotide binding protein alpha 15 (Gα15) and murine GPR119 were maintained in DMEM media containing FBS, penicillin-streptomycin, puromycin, and G418 (geneticin). […] Agonist activation of the GPR119 receptor was measured in receptor transfected cells described above, treated with compounds of this invention, using a commercial homogenous time resolved fluorescence (HTRF) kit for measurement of cAMP (CisBio, Bedford, Mass.). The assay was performed in 96-well half-volume plates (murine) or 384-well plates (human) following the manufacturers instructions. Briefly, suspended cells were incubated with a dose titration of test compound at room temperature for 60 min, lysed, and incubated with HTRF reagents for an additional 60 min. The plate was read using an Envision multilabel reader (Perkin Elmer) adjusted to read time resolved fluorescence and the cAMP concentrations were extrapolated from a cAMP calibration curve. […] The concentration of test compound required to stimulate a half-maximal response (EC50), and efficacy as compared to an internal agonist control, was determined from a sigmoidal 4-parameter curve fit of the resulting plot of normalized activity versus compound concentration.

EC50 | SMILES
1.4 nM | COc1cnc(N2CCC([C@H]3C[C@H]3CCOc3ccc(CC(=O)N4CCOCC4)c(F)c3)CC2)nc1 [Example 38]
0.48 nM | COc1cnc(N2CCC([C@H]3C[C@H]3CCOc3ccc(CC(=O)N4CC(F)C4)c(F)c3)CC2)nc1 [Example 39]
0.42 nM | COc1cnc(N2CCC([C@H]3C[C@H]3CCOc3ccc(CC(=O)N4CC(F)(F)C4)c(F)c3)CC2)nc1 [Example 40]
0.77 nM | COCc1cnc(N2CCC([C@H]3C[C@H]3CCOc3ccc(CC(=O)N4CCC4)c(F)c3)CC2)nc1 [Example 41, 1-(azetidin-1yl)-2-(2-fluoro-4-{2 [(1S,2R)-2-{1-[5-(methoxylmethyl)pyrimidin-2yl]piperidin-4-yl}cyclopropyl]ethoxyl}phenyl)ethanone]
3.4 nM | COCc1cnc(N2CCC([C@H]3C[C@H]3CCOc3ccc(CC(=O)N4CC(O)C4)c(F)c3)CC2)nc1 [Example 42]
0.54 nM | COCc1cnc(N2CCC([C@H]3C[C@H]3CCOc3ccc(CC(=O)N4CC(F)C4)c(F)c3)CC2)nc1 [Example 43]
3.6 nM | COCc1cnc(N2CCC([C@H]3C[C@H]3CCOc3ccc(CC(=O)N4CC(C)(O)C4)c(F)c3)CC2)nc1 [Example 44]
0.81 nM | COCc1cnc(N2CCC([C@H]3C[C@H]3CCOc3ccc(CC(=O)N4CC(OC)C4)c(F)c3)CC2)nc1 [Example 45]
1.8 nM | COCc1cnc(N2CCC([C@H]3C[C@H]3CCOc3ccc(CC(=O)N4CCOCC4)c(F)c3)CC2)nc1 [Example 46]
1.3 nM | COCc1cnc(N2CCC([C@H]3C[C@H]3CCOc3ccc(CC(=O)N(C)C)c(F)c3)CC2)nc1 [Example 47]
0.99 nM | COCc1cnc(N2CCC([C@H]3C[C@H]3CCOc3ccc(CC(=O)N4CCCCC4)c(F)c3)CC2)nc1 [Example 48]
1.6 nM | COCc1cnc(N2CCC([C@H]3C[C@H]3CCOc3ccc(CC(=O)N4CCC[C@@H]4C)c(F)c3)CC2)nc1 [Example 49]
1 nM | COCc1cnc(N2CCC([C@H]3C[C@H]3CCOc3ccc(CC(=O)N4C[C@H](F)[C@@H](F)C4)c(F)c3)CC2)nc1 [Example 50]
0.98 nM | COCc1cnc(N2CCC([C@H]3C[C@H]3CCOc3ccc(CC(=O)N4CC5CC5C4)c(F)c3)CC2)nc1 (stereo partly shown) [Example 51]
0.36 nM | COCc1cnc(N2CCC([C@H]3C[C@H]3CCOc3ccc(CC(=O)N4CCCC4(F)F)c(F)c3)CC2)nc1 [Example 52]
2.5 nM | COCc1cnc(N2CCC([C@H]3C[C@H]3CCOc3ccc(CC(=O)N(C)C4COC4)c(F)c3)CC2)nc1 [Example 54]
4.4 nM | COCc1cnc(N2CCC([C@H]3C[C@H]3CCOc3ccc(CC(=O)N(C)C4CC4)c(F)c3)CC2)nc1 [Example 55]
3.7 nM | COCc1cnc(N2CCC([C@H]3C[C@H]3CCOc3ccc(CC(=O)N4CCC(O)CC4)c(F)c3)CC2)nc1 [Example 56]
3 nM | COCc1cnc(N2CCC([C@H]3C[C@H]3CCOc3ccc(CC(=O)N4CCc5nn[nH]c5C4)c(F)c3)CC2)nc1 [Example 57]
1.2 nM | COCc1cnc(N2CCC([C@H]3C[C@H]3CCOc3ccc(CC(=O)N4CCc5nc(C)oc5C4)c(F)c3)CC2)nc1 [Example 58]
7.3 nM | COCc1cnc(N2CCC([C@H]3C[C@H]3CCOc3ccc(CC(=O)N4CCn5cnnc5C4)c(F)c3)CC2)nc1 [Example 59]
0.19 nM | O=C(Cc1ccc(OCC[C@@H]2C[C@@H]2C2CCN(c3ncc(Cl)cn3)CC2)cc1F)N1CCC1 [Example 60, 1-(azetidin-1-yl)-2-[4-(2-{(1S,2R)-2-[1-(5-chloropyrimidin-2-yl)piperidin-4-yl]cyclopropyl}ethoxy)-2-fluorophenyl]ethanone]
0.7 nM | COC(=O)Cc1ccc(OCC[C@@H]2C[C@@H]2C2CCN(c3ncc(Cl)cn3)CC2)cc1F [Example 61]
1.4 nM | O=C(Cc1ccc(OCC[C@@H]2C[C@@H]2C2CCN(c3ncc(Cl)cn3)CC2)cc1F)NC1CC1 [Example 62]

EC50 | SMILES
4.2 nM | O=C(Cc1ccc(OCC[C@@H]2C[C@@H]2C2CCN(c3ncc(Cl)cn3)CC2)cc1F)NC1CCC1 [Example 63]
0.95 nM | CC1CN(C(=O)Cc2ccc(OCC[C@@H]3C[C@@H]3C3CCN(c4ncc(Cl)cn4)CC3)cc2F)C1 [Example 64]
0.22 nM | O=C(Cc1ccc(OCC[C@@H]2C[C@@H]2C2CCN(c3ncc(Cl)cn3)CC2)cc1F)N1CC(O)C1 [Example 65]
0.4 nM | CC1(O)CN(C(=O)Cc2ccc(OCC[C@@H]3C[C@@H]3C3CCN(c4ncc(Cl)cn4)CC3)cc2F)C1 [Example 66]
0.68 nM | O=C(Cc1ccc(OCC[C@@H]2C[C@@H]2C2CCN(c3ncc(Cl)cn3)CC2)cc1F)N1CC(O)(C(F)(F)F)C1 [Example 67]
0.33 nM | O=C(Cc1ccc(OCC[C@@H]2C[C@@H]2C2CCN(c3ncc(Cl)cn3)CC2)cc1F)N1CC(F)C1 [Example 68]
0.17 nM | COC1CN(C(=O)Cc2ccc(OCC[C@@H]3C[C@@H]3C3CCN(c4ncc(Cl)cn4)CC3)cc2F)C1 [Example 69]
0.8 nM | CC1(C)CN(C(=O)Cc2ccc(OCC[C@@H]3C[C@@H]3C3CCN(c4ncc(Cl)cn4)CC3)cc2F)C1 [Example 70]
1.2 nM | O=C(Cc1ccc(OCC[C@@H]2C[C@@H]2C2CCN(c3ncc(Cl)cn3)CC2)cc1F)N1CC(F)(F)C1 [Example 71]
0.5 nM | O=C(Cc1ccc(OCC[C@@H]2C[C@@H]2C2CCN(c3ncc(Cl)cn3)CC2)cc1F)N1CCC(F)(F)C1 [Example 72]
2.7 nM | C[C@H]1CCCN1C(=O)Cc1ccc(OCC[C@@H]2C[C@@H]2C2CCN(c3ncc(Cl)cn3)CC2)cc1F [Example 73]
4.2 nM | CC1(O)CCN(C(=O)Cc2ccc(OCC[C@@H]3C[C@@H]3C3CCN(c4ncc(Cl)cn4)CC3)cc2F)C1 (stereo partly shown) [Example 74]
0.78 nM | O=C(Cc1ccc(OCC[C@@H]2C[C@@H]2C2CCN(c3ncc(Cl)cn3)CC2)cc1F)N1C[C@H](F)[C@@H](F)C1 [Example 75]
2.4 nM | O=C(Cc1ccc(OCC[C@@H]2C[C@@H]2C2CCN(c3ncc(Cl)cn3)CC2)cc1F)N1CCC[C@@H]1C(F)(F)F [Example 76]
1.5 nM | O=C(Cc1ccc(OCC[C@@H]2C[C@@H]2C2CCN(c3ncc(Cl)cn3)CC2)cc1F)NCC1CC1 [Example 77, 2-[4-(2-(1S,2R)-2-[1-(5-chloropyrimidin-2-yl)piperidin-4-yl]cyclopropylethoxy)-2-fluorophenyl]-N-(cyclopropylmethyl)acetamide]
3.8 nM | COC[C@@H]1CCCN1C(=O)Cc1ccc(OCC[C@@H]2C[C@@H]2C2CCN(c3ncc(Cl)cn3)CC2)cc1F [Example 78]
1.6 nM | O=C(Cc1ccc(OCC[C@@H]2C[C@@H]2C2CCN(c3ncc(Cl)cn3)CC2)cc1F)NCC(F)(F)F [Example 79]
0.76 nM | O=C(Cc1ccc(OCC[C@@H]2C[C@@H]2C2CCN(c3ncc(Cl)cn3)CC2)cc1F)N1CCOCC1 [Example 80]
0.63 nM | CN(C)C(=O)Cc1ccc(OCC[C@@H]2C[C@@H]2C2CCN(c3ncc(Cl)cn3)CC2)cc1F [Example 81]
2.9 nM | CN(C(=O)Cc1ccc(OCC[C@@H]2C[C@@H]2C2CCN(c3ncc(Cl)cn3)CC2)cc1F)C1CCCC1 [Example 82]
1.3 nM | O=C(Cc1ccc(OCC[C@@H]2C[C@@H]2C2CCN(c3ncc(Cl)cn3)CC2)cc1F)NC1CCCC1 [Example 83]
0.61 nM | O=C(Cc1ccc(OCC[C@@H]2C[C@@H]2C2CCN(c3ncc(Cl)cn3)CC2)cc1F)N1CCCC1 [Example 85]
0.8 nM | O=C(Cc1ccc(OCC[C@@H]2C[C@@H]2C2CCN(c3ncc(Cl)cn3)CC2)cc1F)N1CCC(F)(F)CC1 [Example 86]
3.6 nM | O=C(Cc1ccc(OCC[C@@H]2C[C@@H]2C2CCN(c3ncc(Cl)cn3)CC2)cc1F)NC1(C(F)(F)F)CC1 [Example 87]

SMILES | EC50
O=C(Cc1ccc(OCC[C@@H]2C[C@@H]2C2CCN(c3ncc(Cl)cn3)CC2)cc1F)N1CCCCC1 [Example 84] | 1.5 nM
